PubChem BioAssay AID2060607 (Molecular Pharmacology Branch, DTP, NCI, 2025)

Tested on: 876862-298-R-J1-PDC complex spheroids, viability % test/control
Assay: Anticancer human tumor 876862-298-R-J1-PDC patient-derived endometrial carcinoma cell line growth inhibition [CLK]
Details: for IC50: curve of first compound; for viability, T/C: stronger effect = lower value
Method in brief: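 Multi-cell-type spheroids combined patient-derived tumor cells with HUVEC endothelial cells and human mesenchymal stem cells. Paired agents were dosed in half-log steps down from about clinical Cmax, or from 10 microM where Cmax was unknown.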

[1] = second compound 0.0316 µM, first compound 0.0316 µM
[2] = second compound 0.0316 µM, first compound 0.1 µM
[3] = second compound 0.0316 µM, first compound 0.316 µM
[4] = second compound 0.0316 µM, first compound 1 µM
[5] = second compound 0.0316 µM, first compound 3.16 µM
[6] = second compound 0.0316 µM, first compound 10 µM
[7] = second compound 0.1 µM, first compound 0.0316 µM
[8] = second compound 0.1 µM, first compound 0.1 µM
[9] = second compound 0.1 µM, first compound 0.316 µM
[10] = second compound 0.1 µM, first compound 1 µM
[11] = second compound 0.1 µM, first compound 3.16 µM
[12] = second compound 0.1 µM, first compound 10 µM
[13] = second compound 0.316 µM, first compound 0.0316 µM
[14] = second compound 0.316 µM, first compound 0.1 µM
[15] = second compound 0.316 µM, first compound 0.316 µM
[16] = second compound 0.316 µM, first compound 1 µM
[17] = second compound 0.316 µM, first compound 3.16 µM
[18] = second compound 0.316 µM, first compound 10 µM
[19] = second compound 1 µM, first compound 0.0316 µM
[20] = second compound 1 µM, first compound 0.1 µM
[21] = second compound 1 µM, first compound 0.316 µM
[22] = second compound 1 µM, first compound 1 µM
[23] = second compound 1 µM, first compound 3.16 µM
[24] = second compound 1 µM, first compound 10 µM
[25] = second compound 3.16 µM, first compound 0.0316 µM
[26] = second compound 3.16 µM, first compound 0.1 µM
[27] = second compound 3.16 µM, first compound 0.316 µM
[28] = second compound 3.16 µM, first compound 1 µM
[29] = second compound 3.16 µM, first compound 3.16 µM
[30] = second compound 3.16 µM, first compound 10 µM
[31] = second compound 10 µM, first compound 0.0316 µM
[32] = second compound 10 µM, first compound 0.1 µM
[33] = second compound 10 µM, first compound 0.316 µM
[34] = second compound 10 µM, first compound 1 µM
[35] = second compound 10 µM, first compound 3.16 µM
[36] = second compound 10 µM, first compound 10 µM
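Further: spheroids exposed to drugs for 7 days before readout.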
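Wherever viability, T/C is given: 100% = DMSO vehicle control wells.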

C#Cc1c(F)ccc2cc(O)cc(-c3ncc4c(N5CC6CCC(C5)N6)nc(OCC56CCCN5CC(F)C6)nc4c3F)c12 (stereo unspecified) + CNC(=O)c1ccc(Nc2nc(OC3CCCC3)c3c(-c4ccc5nc(C)oc5c4)c[nH]c3n2)c(OC)c1
IC50 (second compound 0.0316 µM): > 10000 nM
IC50 (second compound 0.1 µM): < 31.6 nM
IC50 (second compound 0.316 µM): < 31.6 nM
IC50 (second compound 1 µM): < 31.6 nM
IC50 (second compound 3.16 µM): < 31.6 nM
IC50 (second compound 10 µM): < 31.6 nM
viability, T/C [1]: 65.6%
viability, T/C [2]: 88.8%
viability, T/C [3]: 71.9%
viability, T/C [4]: 75.3%
viability, T/C [5]: 76.3%
viability, T/C [6]: 71.4%
viability, T/C [7]: 46.5%
viability, T/C [8]: 52.8%
viability, T/C [9]: 42.7%
viability, T/C [10]: 46.6%
viability, T/C [11]: 49.9%
viability, T/C [12]: 38.2%
viability, T/C [13]: 38%
viability, T/C [14]: 40.4%
viability, T/C [15]: 38.9%
viability, T/C [16]: 41.7%
viability, T/C [17]: 39.6%
viability, T/C [18]: 34.4%
viability, T/C [19]: 33.5%
viability, T/C [20]: 34.9%
viability, T/C [21]: 27.7%
viability, T/C [22]: 30.5%
viability, T/C [23]: 32.9%
viability, T/C [24]: 26.2%
viability, T/C [25]: 23.6%
viability, T/C [26]: 22.1%
viability, T/C [27]: 22.8%
viability, T/C [28]: 21.7%
viability, T/C [29]: 24.9%
viability, T/C [30]: 20.2%
viability, T/C [31]: 20.1%
viability, T/C [32]: 20.4%
viability, T/C [33]: 21.4%
viability, T/C [34]: 21.6%
viability, T/C [35]: 20.3%
viability, T/C [36]: 19.4%

C=C(F)C(=O)N1CCN(c2nc(OCC3CCCN3C)nc3c2CCN(c2cccc4cccc(Cl)c24)C3)CC1CC#N (stereo unspecified) + CNC(=O)c1ccc(Nc2nc(OC3CCCC3)c3c(-c4ccc5nc(C)oc5c4)c[nH]c3n2)c(OC)c1
IC50 (second compound 0.0316 µM): 4840 nM
IC50 (second compound 0.1 µM): < 31.6 nM
IC50 (second compound 0.316 µM): < 31.6 nM
IC50 (second compound 1 µM): < 31.6 nM
IC50 (second compound 3.16 µM): < 31.6 nM
IC50 (second compound 10 µM): < 31.6 nM
viability, T/C [1]: 61.2%
viability, T/C [2]: 84.6%
viability, T/C [3]: 74.5%
viability, T/C [4]: 84.6%
viability, T/C [5]: 87.3%
viability, T/C [6]: 1.29%
viability, T/C [7]: 47.9%
viability, T/C [8]: 49.9%
viability, T/C [9]: 47.5%
viability, T/C [10]: 48.3%
viability, T/C [11]: 38.8%
viability, T/C [12]: 2.57%
viability, T/C [13]: 42.1%
viability, T/C [14]: 39.7%
viability, T/C [15]: 43.1%
viability, T/C [16]: 39.1%
viability, T/C [17]: 31.5%
viability, T/C [18]: 1.59%
viability, T/C [19]: 33.1%
viability, T/C [20]: 33.1%
viability, T/C [21]: 32.6%
viability, T/C [22]: 27.1%
viability, T/C [23]: 27.6%
viability, T/C [24]: 0.79%
viability, T/C [25]: 22.3%
viability, T/C [26]: 24.6%
viability, T/C [27]: 22.1%
viability, T/C [28]: 21.8%
viability, T/C [29]: 21.8%
viability, T/C [30]: 0.16%
viability, T/C [31]: 23.3%
viability, T/C [32]: 22.4%
viability, T/C [33]: 19.5%
viability, T/C [34]: 21.6%
viability, T/C [35]: 18.6%
viability, T/C [36]: 0.21%

CC(CO)NC(=O)c1cc(-c2ccc(Cl)cc2)nn(-c2cnn(C)c2)c1=O (stereo unspecified) + CNC(=O)c1ccc(Nc2nc(OC3CCCC3)c3c(-c4ccc5nc(C)oc5c4)c[nH]c3n2)c(OC)c1
IC50 (second compound 0.0316 µM): > 10000 nM
IC50 (second compound 0.1 µM): < 31.6 nM
IC50 (second compound 0.316 µM): < 31.6 nM
IC50 (second compound 1 µM): < 31.6 nM
IC50 (second compound 3.16 µM): < 31.6 nM
IC50 (second compound 10 µM): < 31.6 nM
viability, T/C [1]: 68.7%
viability, T/C [2]: 81%
viability, T/C [3]: 66.9%
viability, T/C [4]: 67.7%
viability, T/C [5]: 62.9%
viability, T/C [6]: 55.7%
viability, T/C [7]: 41%
viability, T/C [8]: 53%
viability, T/C [9]: 44.9%
viability, T/C [10]: 48.5%
viability, T/C [11]: 46.1%
viability, T/C [12]: 42.7%
viability, T/C [13]: 38.7%
viability, T/C [14]: 43.8%
viability, T/C [15]: 39.7%
viability, T/C [16]: 37.9%
viability, T/C [17]: 42.7%
viability, T/C [18]: 42.1%
viability, T/C [19]: 33.8%
viability, T/C [20]: 32.6%
viability, T/C [21]: 38.9%
viability, T/C [22]: 33.3%
viability, T/C [23]: 30%
viability, T/C [24]: 31.3%
viability, T/C [25]: 24%
viability, T/C [26]: 25.1%
viability, T/C [27]: 21.7%
viability, T/C [28]: 25.5%
viability, T/C [29]: 27.2%
viability, T/C [30]: 22.4%
viability, T/C [31]: 23.9%
viability, T/C [32]: 21.2%
viability, T/C [33]: 20.5%
viability, T/C [34]: 23.8%
viability, T/C [35]: 23.1%
viability, T/C [36]: 20.9%
